# Experimental data reported in patent publication US12552753B2, “Methods and compositions for targeting Tregs using CCR8 inhibitors” (Nanjing Immunophage Biomedical Co., Ltd., priority 2020, dated 2026).
# Where a name gives a salt, the structure may show the parent alone.
# Biological target: CCR8 (Homo sapiens, UniProt P51685)
# Test: Tango assay (Tango-CCR8-Gal4-CHO-K1 cells, CCL1-stimulated, ONE-Glo luminescence)
# Details: Tango Assay IC50, Inhibition of CCR8 Tango cell in vitro
# Sequence of CCR8 (P51685 whole entry, the tested form may be a part): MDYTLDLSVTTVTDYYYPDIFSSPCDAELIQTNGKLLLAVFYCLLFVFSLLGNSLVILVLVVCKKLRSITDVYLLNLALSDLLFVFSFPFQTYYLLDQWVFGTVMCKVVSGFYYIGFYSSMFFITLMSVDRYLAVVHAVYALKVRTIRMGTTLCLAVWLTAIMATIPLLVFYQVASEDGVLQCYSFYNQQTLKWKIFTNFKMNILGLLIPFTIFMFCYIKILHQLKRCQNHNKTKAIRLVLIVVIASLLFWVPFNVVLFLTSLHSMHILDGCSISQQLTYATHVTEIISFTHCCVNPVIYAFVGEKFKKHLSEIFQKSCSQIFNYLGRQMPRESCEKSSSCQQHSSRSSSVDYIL
row,SMILES,IC50 [nM]
1,"Cc1cc(S(=O)(=O)NC(C)C2CCNCC2)ccc1NC(=O)c1ccccc1Cl (centres unmarked) [Compound 255, 2-chloro-N-(2-methyl-4-(N-(1-(piperidin-4-yl)ethyl)sulfamoyl)phenyl)benzamide]",30
2,"Cc1cc(S(=O)(=O)N[C@H](C)C2CCNCC2)ccc1NC(=O)c1ccc(Cl)cc1C [Compound 256A, (R)-4-chloro-2-methyl-N-(2-methyl-4-(N-(1-(piperidin-4-yl)ethyl)sulfamoyl)phenyl)benzamide hydrochloride]",2
3,"Cc1ccccc1C(=O)Nc1cc(C)c(S(=O)(=O)N[C@H](C)C2CCNCC2)cc1F [Compound 257, (R)-N-(2-fluoro-5-methyl-4-(N-(1-(piperidin-4-yl)ethyl)sulfamoyl)phenyl)-2-methylbenzamide hydrochloride]",15
4,"Cc1cc(S(=O)(=O)N[C@H](C)C2CCNCC2)ccc1NC(=O)c1ccc(F)cc1C [Compound 258A, (R)-4-fluoro-2-methyl-N-(2-methyl-4-(N-(1-(piperidin-4-yl)ethyl)sulfamoyl)phenyl)benzamide hydrochloride]",> 100000
5,"Cc1ccc(C(=O)Nc2ccc(S(=O)(=O)N[C@H](C)C3CCNCC3)cc2C)c(C)c1 [Compound 259A, (R)-2,4-dimethyl-N-(2-methyl-4-(N-(1-(piperidin-4-yl)ethyl)sulfamoyl)phenyl)benzamide hydrochloride]",3
6,"Cc1cc(S(=O)(=O)N[C@H](C)C2CCN(C)CC2)c(F)cc1NC(=O)c1ccccc1C [Compound 262, (R)-N-(5-fluoro-2-methyl-4-(N-(1-(1-methylpiperidin-4-yl)ethyl)sulfamoyl)phenyl)-2-methylbenzamide]",5
7,"Cc1cc(S(=O)(=O)N[C@@H](C)C2CCN(C)CC2)c(F)cc1NC(=O)c1ccccc1C [Compound 262A, (S)-N-(5-fluoro-2-methyl-4-(N-(1-(1-methylpiperidin-4-yl)ethyl)sulfamoyl)phenyl)-2-methylbenzamide]",> 100000
8,"Cc1ccccc1C(=O)Nc1cc(F)c(S(=O)(=O)N[C@H](C)C2CCN(C)CC2)cc1Cl [Compound 263, (R)-N-(2-chloro-5-fluoro-4-(N-(1-(1-methylpiperidin-4-yl)ethyl)sulfamoyl)phenyl)-2-methylbenzamide]",2
9,"Cc1ccccc1C(=O)Nc1cc(F)c(S(=O)(=O)N[C@@H](C)C2CCN(C)CC2)cc1Cl [Compound 263A, (S)-N-(2-chloro-5-fluoro-4-(N-(1-(1-methylpiperidin-4-yl)ethyl)sulfamoyl)phenyl)-2-methylbenzamide hydrochloride]",282
10,"Cc1ccccc1C(=O)Nc1cc(F)c(S(=O)(=O)NC(C)C2CCN(C)CC2)cc1Cl (centres unmarked) [Compound 263C, N-(2-chloro-5-fluoro-4-(N-(1-(1-methylpiperidin-4-yl)ethyl)sulfamoyl)phenyl)-2-methylbenzamide]",15
11,"Cc1ccccc1C(=O)Nc1ccc(S(=O)(=O)N[C@H](C)C2CCN(C)CC2)c(F)c1Cl [Compound 264, (R)-N-(2-chloro-3-fluoro-4-(N-(1-(1-methylpiperidin-4-yl)ethyl)sulfamoyl)phenyl)-2-methylbenzamide]",11
12,"COc1ccc(C(=O)Nc2ccc(S(=O)(=O)N[C@H](C)C3CCN(C)CC3)cc2C)c(C)c1 [Compound 266, (R)-4-methoxy-2-methyl-N-(2-methyl-4-(N-(1-(1-methylpiperidin-4-yl)ethyl)sulfamoyl)phenyl) benzamide]",3
13,"Cc1ccccc1C(=O)Nc1cc(C)c(S(=O)(=O)N[C@H](C)C2CCN(C)CC2)cc1Cl [Compound 267A, (R)-N-(2-chloro-5-methyl-4-(N-(1-(1-methylpiperidin-4-yl)ethyl)sulfamoyl)phenyl)-2-methylbenzamide hydrochloride]",2
14,"Cc1cc(S(=O)(=O)N[C@H](C)C2CCN(C)CC2)ccc1NC(=O)c1c(C)cccc1F [Compound 270, (R)-2-fluoro-6-methyl-N-(2-methyl-4-(N-(1-(1-methylpiperidin-4-yl)ethyl)sulfamoyl)phenyl) benzamide]",50
15,"Cc1cc(S(=O)(=O)N[C@H](C)C2CCN(C)CC2)ccc1NC(=O)c1cc(Cl)ccc1C [Compound 272, (R)-5-chloro-2-methyl-N-(2-methyl-4-(N-(1-(1-methylpiperidin-4-yl)ethyl)sulfamoyl)phenyl) benzamide]",1
16,"Cc1cc(S(=O)(=O)N[C@H](C)C2CCN(C)CC2)ccc1NC(=O)c1ccc(Cl)cc1C [Compound 273A, (R)-4-chloro-2-methyl-N-(2-methyl-4-(N-(1-(1-methylpiperidin-4-yl)ethyl)sulfamoyl)phenyl) benzamide hydrochloride]",1
17,"Cc1cc(S(=O)(=O)N[C@H](C)C2CCN(C)CC2)ccc1NC(=O)C1CCCCCC1 [Compound 274, (R)-N-(2-methyl-4-(N-(1-(1-methylpiperidin-4-yl)ethyl)sulfamoyl)phenyl) cycloheptane-carboxamide]",13
18,"Cc1ccccc1C(=O)Nc1ccc(S(=O)(=O)N[C@H](C)C2CCN(C)CC2)c(Cl)c1Cl [Compound 275, (R)-N-(2,3-dichloro-4-(N-(1-(1-methylpiperidin-4-yl)ethyl)sulfamoyl)phenyl)-2-methylbenzamide]",46

row,SMILES,IC50 [nM]
1,"Cc1cc(S(=O)(=O)N[C@H](C)C2CCN(C)CC2)ccc1NC(=O)c1ccc(F)cc1C [Compound 276, (R)-4-fluoro-2-methyl-N-(2-methyl-4-(N-(1-(1-methylpiperidin-4-yl)ethyl)sulfamoyl)phenyl) benzamide hydrochloride]",10
2,"Cc1ccc(C(=O)Nc2ccc(S(=O)(=O)N[C@H](C)C3CCN(C)CC3)cc2C)c(C)c1 [Compound 277, (R)-2,4-dimethyl-N-(2-methyl-4-(N-(1-(1-methylpiperidin-4-yl)ethyl)sulfamoyl)phenyl) benzamide]",2
3,"Cc1ccccc1C(=O)Nc1ccc(S(=O)(=O)N[C@H](C)C2CCN(C)CC2)c(F)c1C [Compound 278, (R)-N-(3-fluoro-2-methyl-4-(N-(1-(1-methylpiperidin-4-yl)ethyl)sulfamoyl)phenyl)-2-methylbenzamide hydrochloride]",6
4,"CCN1CCCN(C(c2cccc(NS(=O)(=O)c3ccc4ccccc4c3)c2)C(F)(F)F)CC1 (centres unmarked) [Compound 279, N-(3-(1-(4-ethyl-1,4-diazepan-1-yl)-2,2,2-trifluoroethyl)phenyl)naphthalene-2-sulfonamide]",> 100000
5,"CN(C)CCN1CCOc2cc(NS(=O)(=O)c3ccc4ccccc4c3)ccc2C1=O [Compound 280, N-(4-(2-(dimethylamino)ethyl)-5-oxo-2,3,4,5-tetrahydrobenzo[f][1,4]oxazepin-8-yl)naphthalene-2-sulfonamide]",> 100000
6,"Cc1ccccc1C(=O)Nc1ccc(S(=O)(=O)NCc2ccccc2)c2ccccc12 [Compound 281, N-(4-(N-benzylsulfamoyl)naphthalen-1-yl)-2-methylbenzamide]",> 100000
7,"Cc1ccccc1C(=O)Nc1ccc(S(=O)(=O)NC(C)(C)c2ccccc2)c2ccccc12 [Compound 283, 2-methyl-N-(4-(N-(2-phenylpropan-2-yl)sulfamoyl)naphthalen-1-yl)benzamide]",> 100000
8,"CC(NS(=O)(=O)c1ccc2[nH]c(=O)ccc2c1)C1CC2CCC1CC2 (centres unmarked) [Compound 284, N-(1-(bicyclo[2.2.2]octan-2-yl)ethyl)-2-oxo-1,2-dihydroquinoline-6-sulfonamide]",> 100000
9,"Cc1cc(S(=O)(=O)N[C@H](C)C2CCN(C(=O)OC(C)(C)C)CC2)c(C)cc1NC(=O)c1ccccc1C [Compound 285, tert-butyl (R)-4-(1-((2,5-dimethyl-4-(2-methylbenzamido)phenyl)sulfonamido)ethyl)piperidine-1-carboxylate]",> 100000
10,"Cc1cc(S(=O)(=O)NC(C)(C)C2CCN(C)CC2)ccc1NC(=O)c1ccccc1C [Compound 291, 2-methyl-N-(2-methyl-4-(N-(2-(1-methylpiperidin-4-yl)propan-2-yl)sulfamoyl)phenyl) benzamide]",245
11,"Cc1cc(S(=O)(=O)NC(C)C(C)(C)CN(C)C)ccc1NC(=O)c1ccccc1C (centres unmarked) [Compound 294, N-(4-(N-(4-(dimethylamino)-3,3-dimethylbutan-2-yl)sulfamoyl)-2-methylphenyl)-2-methylbenzamide hydrochlroide, hydrochloride]",> 100000
12,"Cc1cc(S(=O)(=O)N[C@H](C)C2CCN(C)CC2)ccc1NC(=O)C12CCC(CC1)CC2 [Compound 295, (R)-N-(2-methyl-4-(N-(1-(1-methylpiperidin-4-yl)ethyl)sulfamoyl)phenyl)bicyclo [2.2.2]oct-ane-1-carboxamide]",4.6
13,"Cc1cc(S(=O)(=O)N[C@H](C)C2CCN(C)CC2)ccc1NC(=O)c1cccc2c1CCC2 [Compound 296, (R)-N-(2-methyl-4-(N-(1-(1-methylpiperidin-4-yl)ethyl)sulfamoyl)phenyl)-2,3-dihydro-1H-indene-4-carboxamide]",2
14,"COc1cc(NC(=O)c2ccccc2C)c(C)cc1S(=O)(=O)N[C@H](C)C1CCN(C)CC1 [Compound 298, (R)-N-(5-methoxy-2-methyl-4-(N-(1-(1-methylpiperidin-4-yl)ethyl)sulfamoyl)phenyl)-2-methylbenzamide]",17
15,"Cc1cc(S(=O)(=O)N[C@H](C)C2CCN(C)CC2)ccc1NC1(c2ccccc2)COC1 [Compound 299, (R)-3-methyl-N-(1-(1-methylpiperidin-4-yl)ethyl)-4-((3-phenyloxetan-3-yl)amino) benzene-sulfonamide]",> 100000
16,"Cc1cc(S(=O)(=O)N[C@H](C)C2CCN(C)CC2)ccc1NC(c1ccccc1)C(F)(F)F (stereo partly drawn) [Compound 300, 3-methyl-N-((R)-1-(1-methylpiperidin-4-yl)ethyl)-4-((2,2,2-trifluoro-1-phenylethyl)amino)benzene-sulfonamide]",2300
17,"Cc1cc(S(=O)(=O)N[C@H](C)C2CC[N+](C)(C)CC2)ccc1NC(=O)c1ccccc1C [Compound 301, (R)-1,1-dimethyl-4-(1-((3-methyl-4-(2-methylbenzamido)phenyl)sulfonamido)ethyl)piperidin-1-ium.chloride.]",102
